Measurements: ChEMBL document CHEMBL3045674, “Synthesis of N-[3-(acetylthio)alkanoyl] and N-[3-mercaptoalkanoyl]-4-(s)-(phenylmethyl) pyroglutamic acids and prolines as potent ACE inhibitors” (2009)
Activity calls are given as the source filed them. No cut-off for these calls is given here.

Assays:
Rattus norvegicus [1] = test: Antihypertensive activity in Rattus norvegicus Sprague-Dawley (rat) assessed as inhibition of angiotensin-1-induced increase in blood pressure at 10 ug/kg, iv administered 5 min before angiotensin-1 challenge; assay type: functional
Rattus norvegicus [2] = test: Antihypertensive activity in Rattus norvegicus Sprague-Dawley (rat) assessed as inhibition of angiotensin-1-induced increase in blood pressure at 30 ug/kg, iv administered 5 min before angiotensin-1 challenge; assay type: functional

Compound | inhibition in vivo at 0.01 mg/kg (Rattus norvegicus [1]) [%] | inhibition in vivo at 0.03 mg/kg (Rattus norvegicus [2]) [%] | inhibition (Rattus norvegicus [1])
CC(=O)SC[C@@H](C)C(=O)N1C[C@@H](Cc2ccccc2)C[C@H]1C(=O)O | 22 | – | –
C[C@H](CS)C(=O)N1CCC[C@H]1C(=O)O [CAPTOPRIL] | 60 | – | –
CC(=O)SCCC(=O)N1C(=O)[C@@H](Cc2ccccc2)C[C@H]1C(=O)O | 13 | 20 | –
CC(=O)SC[C@@H](C)C(=O)N1C(=O)[C@@H](Cc2ccccc2)C[C@H]1C(=O)O | – | 60 | inactive
